Data taken from patent US11691962B2 (eXIthera Pharmaceuticals, Inc., priority 2018, dated 2023).

Columns and labels:
[1] = target: Factor XIa (Homo sapiens (Human), UniProt P03951); assay: Factor XIa enzyme inhibition assay (dose response, fluorogenic AMC substrate); type: biochemical; conditions: read-out: hFXIa IC50
In short: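 Human FXIa at 0.25 nM final with 50 μM final PyroGlu-Pro-Arg-AMC in 20 mM Hepes pH 7.4, 150 mM NaCl, 0.02% Tween 20. Two-fold serial compound dilutions; fluorescence read every minute for 30 min at 30° C. IC50 from a four-parameter Hill fit.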

[2] = Caco-2 cell permeability assay; type: in vitro ADME, human; conditions: human, 37° C.; for Papp A→B at 60 min, 10 μM: Caco-2, apical to basolateral; for Papp B→A at 40 min, 10 μM: Caco-2, basolateral to apical
In short: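 Caco-2 monolayers (days 21-25 post-seeding) received 10 μM compound in HBSS-MES pH 6.5 or HBSS-HEPES pH 7.4 (1% DMSO) at 37 °C, for 60 min A-B or 40 min B-A. Donor and receiver samples were quantified by HPLC-MS/MS (SRM), and Papp and recovery were calculated.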

[3] = Aqueous solubility in PBS by HPLC-UV/VIS; type: physicochemical; conditions: phosphate buffered saline, aqueous buffer, kinetic from dmso stock; PBS pH 7.4, 2% DMSO, 24 h at room temperature
In short: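 Compound diluted to 200 μM in PBS pH 7.4 from DMSO stock (2% DMSO final), incubated 24 h at room temperature, then centrifuged. Supernatant analysed by HPLC-UV/VIS; solubility (μM) from principal-peak area versus a 200 μM calibration standard. Range approximately 0.5–200 μM.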

Factor XIa, sequence (P03951 388-625): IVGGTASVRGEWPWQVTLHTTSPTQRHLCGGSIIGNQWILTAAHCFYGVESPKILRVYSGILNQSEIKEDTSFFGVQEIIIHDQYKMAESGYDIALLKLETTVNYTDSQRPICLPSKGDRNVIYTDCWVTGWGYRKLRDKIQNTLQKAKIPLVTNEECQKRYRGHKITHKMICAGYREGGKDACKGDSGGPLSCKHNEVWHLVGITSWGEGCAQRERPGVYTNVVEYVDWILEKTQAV
Factor XIa, sequence (P03951 19-387 partner): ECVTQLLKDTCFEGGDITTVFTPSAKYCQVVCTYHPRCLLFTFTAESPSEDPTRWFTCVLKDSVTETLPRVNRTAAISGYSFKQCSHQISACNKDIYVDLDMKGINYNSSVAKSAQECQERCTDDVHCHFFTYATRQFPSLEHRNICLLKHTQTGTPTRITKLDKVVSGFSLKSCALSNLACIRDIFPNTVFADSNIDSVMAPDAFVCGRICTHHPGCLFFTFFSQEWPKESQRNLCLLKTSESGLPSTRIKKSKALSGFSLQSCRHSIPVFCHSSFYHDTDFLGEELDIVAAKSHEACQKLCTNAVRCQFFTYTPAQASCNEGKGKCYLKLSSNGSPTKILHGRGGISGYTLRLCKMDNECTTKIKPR

| IC50 [1] [nM] | Papp A→B at 60 min, 10 μM [2] [×10⁻⁶ cm/s] | Papp B→A at 40 min, 10 μM [2] [×10⁻⁶ cm/s] | solubility at 24 h [3] [µM] | SMILES |
| --- | --- | --- | --- | --- |
| < 10 | < 10 | 11 to 30 | > 100 | CC[C@@H](NC(=O)N1C(=O)[C@H](Cc2cc(C)nc(N)c2)[C@H]1C(=O)N(C)c1ccnn1C)c1ccc(C)c(C)c1 [Compound 1-152, (2S,3R)-3-((2-amino-6-methylpyridin-4-yl)methyl)-N2-(1-methyl-1H-pyrazol-5-yl)-N1-((R)-1-(3,4-dimethylphenyl)propyl)-N2-methyl-4-oxoazetidine-1,2-dicarboxamide] |
| < 10 | < 10 | 11 to 30 | > 100 | CC[C@@H](NC(=O)N1C(=O)[C@H](Cc2cc(C)nc(N)c2)[C@H]1C(=O)N(C)c1ccnn1C)c1ccc(C)c(F)c1 [Compound 1-155, (2S,3R)-3-((2-amino-6-methylpyridin-4-yl)methyl)-N2-(1-methyl-1H-pyrazol-5-yl)-N1-((R)-1-(3-fluoro-4-methylphenyl)propyl)-N2-methyl-4-oxoazetidine-1,2-dicarboxamide] |
| < 10 | < 10 | 11 to 30 | > 100 | CC[C@@H](NC(=O)N1C(=O)[C@H](Cc2cc(C)nc(N)c2)[C@H]1C(=O)N(C)c1ccnn1C)c1ccc(F)c(F)c1 [Compound 1-158, (2S,3R)-3-((2-amino-6-methylpyridin-4-yl)methyl)-N2-(1-methyl-1H-pyrazol-5-yl)-N1-((R)-1-(3,4-difluorophenyl)propyl)-N2-methyl-4-oxoazetidine-1,2-dicarboxamide] |
